Assay results reported in the NIST ThermoML archive (doi:10.1021/je300826t).
Numbers after ± are expanded uncertainties.

What was measured:
[1] = 298.15 K; 101.33 kPa; Liquid; Vibrating tube method
[2] = refractive index (Na D-line) (dimensionless); conditions: 298.15 K; 101.33 kPa; Liquid; Standard Abbe refractometry

mass density [1] [kg/m3] | refractive index [2] | Compound
862.51 ± 0.11 | 1.49304 ± 0.00068 | CCc1ccccc1 [ethylbenzene]
873.57 ± 0.11 | 1.49774 ± 0.00068 | c1ccccc1 [benzene]
831.47 ± 0.24 | 1.45598 ± 0.0007 | C1CCCCCCC1 [cyclooctane]
1212.59 ± 0.41 | 1.47792 ± 0.0007 | CCCCn1cc[n+](C)c1.COS(=O)(=O)[O-] [1-butyl-3-methylimidazolium methyl sulfate]
765.02 ± 0.24 | 1.42062 ± 0.0007 | CC1CCCCC1 [methylcyclohexane]
773.8 ± 0.13 | 1.4236 ± 0.00068 | C1CCCCC1 [cyclohexane]
